In the supplement of paper PMC4862054:

How the values were obtained:
Conditions in all cases: incubation time: 72 h
HDQ-P1 [1] = experiment: normalised response (% of control), CellTox Green; higher = less cell death (100 = DMSO, 0 = benzethonium chloride kill control)
Procedure, shortened: (§1)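 For each plate, 0.1 % DMSO was set to 100 and a positive kill control to 0. Breast cancer cell lines (20 µl suspension) were seeded into 384-well plates already holding compound at 5 concentrations in 10-fold steps over a 10,000-fold range chosen per compound, and incubated for 72 h. CellTox Green fluorescence at 485/520 nm was read before CellTiter-Glo luminescence, which followed 10 min at room temperature. Each value is the normalised signal at one concentration.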

MFM-223 [2] = experiment: as above
Procedure, shortened: as §1

BT-549 [3] = experiment: as above
Procedure, shortened: as §1

HCC1143 [4] = experiment: as above
Procedure, shortened: as §1

CAL-120 [5] = experiment: as above
Procedure, shortened: as §1

Hs578T [6] = experiment: as above
Procedure, shortened: as §1

HCC1937 [7] = experiment: as above
Procedure, shortened: as §1

MDA-MB-436 [8] = experiment: as above
Procedure, shortened: as §1

DU-4475 [9] = experiment: as above
Procedure, shortened: as §1

MDA-MB-468 [10] = experiment: as above
Procedure, shortened: as §1

CAL-148 [11] = experiment: as above
Procedure, shortened: as §1

MCF-10A [12] = experiment: as above
Procedure, shortened: as §1

MDA-MB-453 [13] = experiment: as above
Procedure, shortened: as §1

BT-474 [14] = experiment: as above
Procedure, shortened: as §1

CAL-85-1 [15] = experiment: as above
Procedure, shortened: as §1

HCC1599 [16] = experiment: as above
Procedure, shortened: as §1

CAL-51 [17] = experiment: as above
Procedure, shortened: as §1

MDA-MB-231 [18] = experiment: as above
Procedure, shortened: as §1

HDQ-P1 [19] = experiment: normalised response (% of control), CellTiter-Glo; higher = more viable cells (100 = DMSO, 0 = benzethonium chloride kill control)
Description: (§2)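 DSRT, 72 h incubation, CellTox Green / CellTiter-Glo readout. Signal is normalised to DMSO and benzethonium chloride controls. Value is the normalised response at the highest dose.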

MFM-223 [20] = experiment: as above
Description: as §2

SK-BR-3 [21] = experiment: as above
Description: as §2

BT-549 [22] = experiment: as above
Description: as §2

HCC1143 [23] = experiment: as above
Description: as §2

CAL-120 [24] = experiment: as above
Description: as §2

Hs578T [25] = experiment: as above
Description: as §2

HCC1937 [26] = experiment: as above
Description: as §2

MDA-MB-436 [27] = experiment: as above
Description: as §2

DU-4475 [28] = experiment: as above
Description: as §2

MDA-MB-468 [29] = experiment: as above
Description: as §2

CAL-148 [30] = experiment: as above
Description: as §2

MCF-10A [31] = experiment: as above
Description: as §2

MDA-MB-453 [32] = experiment: as above
Description: as §2

BT-474 [33] = experiment: as above
Description: as §2

CAL-85-1 [34] = experiment: as above
Description: as §2

HCC1599 [35] = experiment: as above
Description: as §2

CAL-51 [36] = experiment: as above
Description: as §2

MDA-MB-231 [37] = experiment: as above
Description: as §2

HDQ-P1 [38] = experiment: as above; remark: listed apart in the source
Description: (§3)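 DSRT, 72 h incubation, CellTox Green / CellTiter-Glo readout. Signal is normalised to DMSO and benzethonium chloride controls. Value is the normalised response at dose 3.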

MFM-223 [39] = experiment: as above; remark: listed apart in the source
Description: as §3

SK-BR-3 [40] = experiment: as above; remark: listed apart in the source
Description: as §3

BT-549 [41] = experiment: as above; remark: listed apart in the source
Description: as §3

HCC1143 [42] = experiment: as above; remark: listed apart in the source
Description: as §3

CAL-120 [43] = experiment: as above; remark: listed apart in the source
Description: as §3

Hs578T [44] = experiment: as above; remark: listed apart in the source
Description: as §3

HCC1937 [45] = experiment: as above; remark: listed apart in the source
Description: as §3

MDA-MB-436 [46] = experiment: as above; remark: listed apart in the source
Description: as §3

DU-4475 [47] = experiment: as above; remark: listed apart in the source
Description: as §3

MDA-MB-468 [48] = experiment: as above; remark: listed apart in the source
Description: as §3

CAL-148 [49] = experiment: as above; remark: listed apart in the source
Description: as §3

MCF-10A [50] = experiment: as above; remark: listed apart in the source
Description: as §3

MDA-MB-453 [51] = experiment: as above; remark: listed apart in the source
Description: as §3

BT-474 [52] = experiment: as above; remark: listed apart in the source
Description: as §3

CAL-85-1 [53] = experiment: as above; remark: listed apart in the source
Description: as §3

HCC1599 [54] = experiment: as above; remark: listed apart in the source
Description: as §3

CAL-51 [55] = experiment: as above; remark: listed apart in the source
Description: as §3

MDA-MB-231 [56] = experiment: as above; remark: listed apart in the source
Description: as §3

| SMILES | normalised response (HDQ-P1 [1]) [%] | normalised response (MFM-223 [2]) [%] | normalised response (BT-549 [3]) [%] | normalised response (HCC1143 [4]) [%] | normalised response (CAL-120 [5]) [%] | normalised response (Hs578T [6]) [%] | normalised response (HCC1937 [7]) [%] | normalised response (MDA-MB-436 [8]) [%] | normalised response (DU-4475 [9]) [%] | normalised response (MDA-MB-468 [10]) [%] | normalised response (CAL-148 [11]) [%] | normalised response (MCF-10A [12]) [%] | normalised response (MDA-MB-453 [13]) [%] | normalised response (BT-474 [14]) [%] | normalised response (CAL-85-1 [15]) [%] | normalised response (HCC1599 [16]) [%] | normalised response (CAL-51 [17]) [%] | normalised response (MDA-MB-231 [18]) [%] | normalised response (HDQ-P1 [19]) [%] | normalised response (MFM-223 [20]) [%] | other results |
| --- | --- | --- | --- | --- | --- | --- | --- | --- | --- | --- | --- | --- | --- | --- | --- | --- | --- | --- | --- | --- | --- |
| Cn1cc(CNCC2CCN(c3ncc(C(=O)NO)cn3)CC2)c2ccccc21 [Quisinostat] (1000 nM) | 52.1 | 66.2 | 64.2 | 57.9 | -15.2 | 9.9 | 82 | 91.8 | 77.2 | 31.9 | -22.9 | 56.8 | 87.9 | 35.7 | -55.4 | 71.7 | -21.8 | -24.8 | 25.7 | 32.8 | normalised response (SK-BR-3 [21]): 0.06%; normalised response (BT-549 [22]): 10.2%; normalised response (HCC1143 [23]): 13.9%; normalised response (CAL-120 [24]): 10.8%; normalised response (Hs578T [25]): 5.64%; normalised response (HCC1937 [26]): 22.7%; normalised response (MDA-MB-436 [27]): 34.8%; normalised response (DU-4475 [28]): 15.9%; normalised response (MDA-MB-468 [29]): 10.2%; normalised response (CAL-148 [30]): 0.34%; normalised response (MCF-10A [31]): 10.7%; normalised response (MDA-MB-453 [32]): 2.11%; normalised response (BT-474 [33]): 6.87%; normalised response (CAL-85-1 [34]): 4.67%; normalised response (HCC1599 [35]): 6.82%; normalised response (CAL-51 [36]): 7.13%; normalised response (MDA-MB-231 [37]): 6.24% |
| CC(C)N(CCCNC(=O)Nc1ccc(C(C)(C)C)cc1)C[C@H]1O[C@@H](n2cc(Br)c3c(N)ncnc32)[C@H](O)[C@@H]1O [SGC0946] (100 nM) | – | 97.4 | 101 | 88.1 | 95.6 | – | – | 95.2 | 98.8 | 108 | 100 | 99 | 99.1 | 98.2 | 103 | 96.4 | 95.6 | 73.8 | – | – | normalised response (HDQ-P1 [38]): 93%; normalised response (MFM-223 [39]): 95.2%; normalised response (SK-BR-3 [40]): 90%; normalised response (BT-549 [41]): 91.3%; normalised response (HCC1143 [42]): 101%; normalised response (CAL-120 [43]): 101%; normalised response (Hs578T [44]): 88.5%; normalised response (HCC1937 [45]): 94.4%; normalised response (MDA-MB-436 [46]): 99.4%; normalised response (DU-4475 [47]): 98%; normalised response (MDA-MB-468 [48]): 93.8%; normalised response (CAL-148 [49]): 86.6%; normalised response (MCF-10A [50]): 96%; normalised response (MDA-MB-453 [51]): 91%; normalised response (BT-474 [52]): 96%; normalised response (CAL-85-1 [53]): 102%; normalised response (HCC1599 [54]): 93.7%; normalised response (CAL-51 [55]): 91.1%; normalised response (MDA-MB-231 [56]): 96% |
| CC[C@@]1(O)C(=O)OCc2c1cc1n(c2=O)Cc2cc3c(CN(C)C)c(O)ccc3nc2-1 [Topotecan] (10000 nM) | 69.8 | 43.5 | 56.9 | 87.9 | 49.3 | 102 | 18.6 | 29.1 | 60.8 | 29.5 | 7.1 | 55.5 | 85.1 | 88.4 | 42.3 | 71.7 | -18.1 | 46.1 | 54.5 | 61.7 | normalised response (SK-BR-3 [21]): 19.6%; normalised response (BT-549 [22]): 22.1%; normalised response (HCC1143 [23]): 26.9%; normalised response (CAL-120 [24]): 37%; normalised response (Hs578T [25]): 55.2%; normalised response (HCC1937 [26]): 15.3%; normalised response (MDA-MB-436 [27]): 21%; normalised response (DU-4475 [28]): 0.66%; normalised response (MDA-MB-468 [29]): 4.47%; normalised response (CAL-148 [30]): 0.39%; normalised response (MCF-10A [31]): 39%; normalised response (MDA-MB-453 [32]): 33.2%; normalised response (BT-474 [33]): 47.8%; normalised response (CAL-85-1 [34]): 21.6%; normalised response (HCC1599 [35]): 9.36%; normalised response (CAL-51 [36]): 15.2%; normalised response (MDA-MB-231 [37]): 43.1% |
